According to US11491109B2, “Pharmaceutical compositions for basic or neutral, low molecular weight compounds” (Hoffmann-La Roche Inc., priority 2017, dated 2022):
Values after ≈ are worked out from the molar mass of the structure shown. Values joined by “and” are separate entries in the source; they are usually repeats but may differ in a detail not shown here. Identical values can stand only once.

Experiment: Equilibrium solubility in EPO-solutions, 96-well SORESOS assay
Assay type: physicochemical
Conditions: EPO 0.1%; vs adjusted solubility in water at pH 6.0
Experimental: Polymer solutions were prepared by dissolving EPO (0.1%, 0.5%, 1%, 2%, 3%, 4%, 5% (w/w)) in deionized water and adjusting all solutions to pH 6.0 by hydrochloric acid and sodium hydroxide at 25° C. Solutions were checked carefully for absence of particles.
(§1) Solubility of compounds in EPO-solutions was determined by using a 96-well assay that was introduced to measure equilibrium solubility in parallel to a solid state analysis of the residual solid (SORESOS)^21 as described before.^22 In brief, APIs were dispensed using the powder-picking-method^23 in a 96-well flat bottom plate (Corning Inc., Durham, USA). Mixtures were agitated by head-over-head rotation for 48 h at room temperature after addition of stir bars and polymer solutions (150 μl). After mixing, the suspensions were carefully transferred into 96-well filter plates and the liquid and solid phase were separated by centrifugation. […] An isocratic flow (composition of the mobile phase is listed in Table 2) was applied for 0.3 min at a flow rate of 0.75 mL/min. […] Solid state analysis of residual solid was performed by X-ray powder diffraction (XRPD) using a STOE Stadi P Combi diffractometer with a primary Ge-monochromator (Cu Kα radiation), imaging plate position sensitive detector (IP-PSD), and a 96-well sample stage as described before.^21 The IP-PSD allowed simultaneous recording of the diffraction pattern on both sides of the primary beam which were summed up by the software STOE WinXPOW to reduce effects related to poor crystal orientation statistics. Samples were analyzed directly in the 96-well filter plate with an exposure time of 5 min per well.
as §1, with “After addition of stir bars and polymer solutions (150 μl), mixtures” for “Mixtures”, “temperature.” for “temperature after addition of stir bars and polymer solutions (150 μl).”, “7)” for “2)”

Going from OC(c1cc(C(F)(F)F)nc2c(C(F)(F)F)cccc12)C1CCCCN1 (stereo not shown) [MFQ, mefloquine] to O=c1[nH]c2ccccc2n1C1CCN(CCCC(c2ccc(F)cc2)c2ccc(F)cc2)CC1 [PMZ, Pimozide], the “Adjusted SE in EPO 0.1%” value rises from 0.2 to 2.0.

Same assay, conditions: EPO 0.1%; vs measured solubility in water

Compared with OC(c1cc(C(F)(F)F)nc2c(C(F)(F)F)cccc12)C1CCCCN1 (stereo not shown) [MFQ, mefloquine], O=c1[nH]c2ccccc2n1C1CCN(CCCC(c2ccc(F)cc2)c2ccc(F)cc2)CC1 [PMZ, Pimozide] is higher in “Non-adjusted SE in EPO 0.1% (in brackets)” value: 7.2 for the first, 12.8 for the second.

Same assay, conditions: EPO 0.1-5%, 48 h, room temperature

With CCOC(=O)C1=C(C)NC(C)=C(C(=O)OC)C1c1cccc(Cl)c1Cl (stereo not shown) [FLP, felodipine] the “course of solubility with polymer concentration” value (from here on “course of solubility”) was “increase of solubility with polymer concentration up to 5% EPO”.
In the case of OC(c1cc(C(F)(F)F)nc2c(C(F)(F)F)cccc12)C1CCCCN1 (stereo not shown) [MFQ, mefloquine], the “course of solubility” value is reported as “increase of solubility with polymer concentration up to 5% EPO”.
In the case of O=c1[nH]c2ccccc2n1C1CCN(CCCC(c2ccc(F)cc2)c2ccc(F)cc2)CC1 [PMZ, Pimozide], the “course of solubility” value is reported as “increase of solubility with polymer concentration up to 5% EPO”.

Same assay, conditions: EPO 0.5%; vs adjusted solubility in water at pH 6.0

Compared with OC(c1cc(C(F)(F)F)nc2c(C(F)(F)F)cccc12)C1CCCCN1 (stereo not shown) [MFQ, mefloquine], O=c1[nH]c2ccccc2n1C1CCN(CCCC(c2ccc(F)cc2)c2ccc(F)cc2)CC1 [PMZ, Pimozide] is higher in “Adjusted SE in EPO 0.5%” value: 1.0 for the first, 5.4 for the second.

Same assay, conditions: EPO 0.5%; vs measured solubility in water

Compared with OC(c1cc(C(F)(F)F)nc2c(C(F)(F)F)cccc12)C1CCCCN1 (stereo not shown) [MFQ, mefloquine], O=c1[nH]c2ccccc2n1C1CCN(CCCC(c2ccc(F)cc2)c2ccc(F)cc2)CC1 [PMZ, Pimozide] is lower in “Non-adjusted SE in EPO 0.5% (in brackets)” value: 37.3 for the first, 35.3 for the second.

Same assay, conditions: EPO 1.0%; vs adjusted solubility in water at pH 6.0

Compared with OC(c1cc(C(F)(F)F)nc2c(C(F)(F)F)cccc12)C1CCCCN1 (stereo not shown) [MFQ, mefloquine], O=c1[nH]c2ccccc2n1C1CCN(CCCC(c2ccc(F)cc2)c2ccc(F)cc2)CC1 [PMZ, Pimozide] is higher in “Adjusted SE in EPO 1.0%” value: 1.5 for the first, 5.0 for the second.

Same assay, conditions: EPO 1.0%; vs measured solubility in water

Compared with OC(c1cc(C(F)(F)F)nc2c(C(F)(F)F)cccc12)C1CCCCN1 (stereo not shown) [MFQ, mefloquine], O=c1[nH]c2ccccc2n1C1CCN(CCCC(c2ccc(F)cc2)c2ccc(F)cc2)CC1 [PMZ, Pimozide] is lower in “Non-adjusted SE in EPO 1.0% (in brackets)” value: 58.3 for the first, 32.3 for the second.

Same assay, conditions: EPO 2.0%; vs adjusted solubility in water at pH 6.0

Compared with OC(c1cc(C(F)(F)F)nc2c(C(F)(F)F)cccc12)C1CCCCN1 (stereo not shown) [MFQ, mefloquine], O=c1[nH]c2ccccc2n1C1CCN(CCCC(c2ccc(F)cc2)c2ccc(F)cc2)CC1 [PMZ, Pimozide] is higher in “Adjusted SE in EPO 2.0%” value: 2.4 for the first, 6.9 for the second.

Same assay, conditions: EPO 2.0%; vs measured solubility in water

With O=c1[nH]c2ccccc2n1C1CCN(CCCC(c2ccc(F)cc2)c2ccc(F)cc2)CC1 [PMZ, Pimozide] the “Non-adjusted SE in EPO 2.0% (in brackets)” value was 45.0.

Same assay, conditions: EPO 3.0%; vs adjusted solubility in water at pH 6.0

First: OC(c1cc(C(F)(F)F)nc2c(C(F)(F)F)cccc12)C1CCCCN1 (stereo not shown) [MFQ, mefloquine]
Second: O=c1[nH]c2ccccc2n1C1CCN(CCCC(c2ccc(F)cc2)c2ccc(F)cc2)CC1 [PMZ, Pimozide]
The “Adjusted SE in EPO 3.0%” value of the first is lower: 3.6 for the first, 8.5 for the second.

Same assay, conditions: EPO 3.0%; vs measured solubility in water

Compared with OC(c1cc(C(F)(F)F)nc2c(C(F)(F)F)cccc12)C1CCCCN1 (stereo not shown) [MFQ, mefloquine], O=c1[nH]c2ccccc2n1C1CCN(CCCC(c2ccc(F)cc2)c2ccc(F)cc2)CC1 [PMZ, Pimozide] is lower in “Non-adjusted SE in EPO 3.0% (in brackets)” value: 141.5 for the first, 55.2 for the second.

Same assay, conditions: EPO 4.0%; vs adjusted solubility in water at pH 6.0

Going from OC(c1cc(C(F)(F)F)nc2c(C(F)(F)F)cccc12)C1CCCCN1 (stereo not shown) [MFQ, mefloquine] to O=c1[nH]c2ccccc2n1C1CCN(CCCC(c2ccc(F)cc2)c2ccc(F)cc2)CC1 [PMZ, Pimozide], the “Adjusted SE in EPO 4.0%” value rises from 4.4 to 9.3.

Same assay, conditions: EPO 4.0%; vs measured solubility in water

Going from OC(c1cc(C(F)(F)F)nc2c(C(F)(F)F)cccc12)C1CCCCN1 (stereo not shown) [MFQ, mefloquine] to O=c1[nH]c2ccccc2n1C1CCN(CCCC(c2ccc(F)cc2)c2ccc(F)cc2)CC1 [PMZ, Pimozide], the “Non-adjusted SE in EPO 4.0% (in brackets)” value falls from 172.5 to 60.2.

Same assay, conditions: EPO 5.0%; vs adjusted solubility in water at pH 6.0

First: OC(c1cc(C(F)(F)F)nc2c(C(F)(F)F)cccc12)C1CCCCN1 (stereo not shown) [MFQ, mefloquine]
Second: O=c1[nH]c2ccccc2n1C1CCN(CCCC(c2ccc(F)cc2)c2ccc(F)cc2)CC1 [PMZ, Pimozide]
The “Adjusted SE in EPO 5.0%” value of the first is lower: 4.8 for the first, 9.8 for the second.

Same assay, conditions: EPO 5.0%; vs measured solubility in water

Compared with OC(c1cc(C(F)(F)F)nc2c(C(F)(F)F)cccc12)C1CCCCN1 (stereo not shown) [MFQ, mefloquine], O=c1[nH]c2ccccc2n1C1CCN(CCCC(c2ccc(F)cc2)c2ccc(F)cc2)CC1 [PMZ, Pimozide] is lower in “Non-adjusted SE in EPO 5.0% (in brackets)” value: 186.2 for the first, 63.8 for the second.

Same assay, conditions: aqueous EPO polymer solution, pH 6, aqueous with cosolvent or surfactant or cyclodextrin, thermodynamic from solid; EPO 5%, 48 h, room temperature

Work on OC(c1cc(C(F)(F)F)nc2c(C(F)(F)F)cccc12)C1CCCCN1 (stereo not shown) [MFQ, mefloquine] yielded a solubility at 48 h of 12 mg/mL (≈ 31700 µM).

Experiment: Drug solubility in water (aqueous solubility)
Assay type: physicochemical
Conditions: thermodynamic from solid, 24 h incubation, pH not adjusted, read-out: Solubility in water (standard deviation, n = 3)

Compared with OC(c1cc(C(F)(F)F)nc2c(C(F)(F)F)cccc12)C1CCCCN1 (stereo not shown) [MFQ, mefloquine], O=c1[nH]c2ccccc2n1C1CCN(CCCC(c2ccc(F)cc2)c2ccc(F)cc2)CC1 [PMZ, Pimozide] is 32-fold lower in solubility at 24 h: 0.063 mg/mL (≈ 167 µM) for the first, 0.002 mg/mL (≈ 4.33 µM) for the second.

Same assay, conditions: thermodynamic from solid, extrapolated to pH 6.0 by Henderson-Hasselbalch equation, read-out: Adjusted solubility at pH 6.0

Going from OC(c1cc(C(F)(F)F)nc2c(C(F)(F)F)cccc12)C1CCCCN1 (stereo not shown) [MFQ, mefloquine] to O=c1[nH]c2ccccc2n1C1CCN(CCCC(c2ccc(F)cc2)c2ccc(F)cc2)CC1 [PMZ, Pimozide], the solubility at 24 h falls from 2.45 mg/mL (≈ 6470 µM) to 0.013 mg/mL (≈ 28.2 µM) (190-fold).

Same assay, conditions: thermodynamic from solid, neutral model compounds, n = 3

CCOC(=O)C1=C(C)NC(C)=C(C(=O)OC)C1c1cccc(Cl)c1Cl (stereo not shown) [FLP, felodipine] gave a solubility of 0.0004 mg/mL (≈ 1.04 µM).

Experiment: pKa via photometric titration (Roche internal data)
Assay type: physicochemical
Conditions: measured via photometric titration; basic model compounds

First: OC(c1cc(C(F)(F)F)nc2c(C(F)(F)F)cccc12)C1CCCCN1 (stereo not shown) [MFQ, mefloquine]
Second: O=c1[nH]c2ccccc2n1C1CCN(CCCC(c2ccc(F)cc2)c2ccc(F)cc2)CC1 [PMZ, Pimozide]
The pKa of the first is higher: 9.2 for the first, 8.6 for the second.

Work on CC/C(=C(\c1ccccc1)c1ccc(OCCN(C)C)cc1)c1ccccc1 [TMX, tamoxifen] yielded a pKa of 9.7.

Experiment: pH of drug suspensions in water and in EPO-solutions
Assay type: physicochemical
Conditions: EPO 0.5%, 2%, and 5%; solutions started at pH 6.0
Experimental: All excipient solutions were adjusted to pH 6.0 before incubation and following equilibration, the residual solid was analyzed by means of XRPD. […] This extrapolation method was based on the Henderson-Hasselbalch equation and it is generally reliable when the experimental solubility value is within one pH unit difference.^25

In the case of OC(c1cc(C(F)(F)F)nc2c(C(F)(F)F)cccc12)C1CCCCN1 (stereo not shown) [MFQ, mefloquine], the “pH after 48 h in EPO” value is reported as 6.3 and 6.4.
